Measurements taken from patent publication US11708318B2, “Polymorphic forms of RAD1901-2HCL” (Radius Pharmaceuticals, Inc., priority 2017, dated 2023).
Entries after “also recorded” stand apart in the source; their conditions may differ. Each block holds one compound with its values, some of them ahead of it.

Columns and labels:
Format in all cases: physicochemical
[1] = Gravimetric Vapour Sorption (GVS), with XRPD of the recovered sample; settings: for Hygroscopicity (GVS): 0-90% RH
Procedure: Sorption isotherms were obtained using a SMS DVS Intrinsic moisture sorption analyzer, controlled by DVS Intrinsic Control software v1.0.1.2 (or v 1.0.1.3). The sample temperature was maintained at 25° C. by the instrument controls. The humidity was controlled by mixing streams of dry and wet nitrogen, with a total flow rate of 200 ml/min. The relative humidity was measured by a calibrated Rotronic probe (dynamic range of 1.0-100% RH), located near the sample. The weight change, (mass relaxation) of the sample as a function of % RH was constantly monitored by the microbalance (accuracy ±0.005 mg).
A sample (e.g., 20 mg) was placed in a tared mesh stainless steel basket under ambient conditions. The sample was loaded and unloaded at 40% RH and 25° C. (typical room conditions). A moisture sorption isotherm was performed as outlined below (2 scans giving 1 complete cycle). Standard isotherms were performed at 25° C. at 10% RH intervals over a 0-90% RH range. Data analysis was carried out using Microsoft Excel using DVS Analysis Suite v6.2 (or 6.1 or 6.0).
In a cycle of 2 scans, the first scan was performed with adsorption of 40-90% RH, followed by a second scan with desorption of 90-0% RH and adsorption of 0-40% RH, with intervals of 10% RH, at 25° C. with stability dm/dt of 0.002% ° C./min. The sorption time was 6 hr time out.
The sample was recovered after completion of the isotherm and re-analyzed by XRPD. Custom moisture sorption methods were also performed at 25° C. at fixed % RH intervals over a 0-95% RH range, with the purpose to fully understand the sorption/desorption behavior of the compound under elevated conditions.
To further explore the humidity behavior of Sample 1 (Form 1) upon exposure to high RH (>90%), custom GVS experiments were designed and carried out. Initially, the sample was treated by holding at 90 and then 95% RH for ˜12 hours to see if hydrate formation could be observed (HighRH method of Steps 1 and 2 of Table 2, FIGS. 6C-6D).
To test the stability of the hydrated state, GVS method HighRH_Desorp_3 was designed with a desorption step and subsequent adsorption (see Table 2 with steps 1-4, FIGS. 6E-6F).
Finally, to ensure complete conversion to the anhydrous and hydrated forms, a GVS experiment was designed to increase both the length of the desorption step at 0% RH, and the adsorption step at 95% RH, respectively (Table 3). Based on the weight stabilization observed in the kinetic plots for Sample 1 in HighRH and HighRH_Desorp_3 methods discussed above (FIGS. 6D and 6F), a holding time of 800 mins at 0% RH and 1600 mins at 95% RH were chosen. A double cycle was also recorded for this experiment to observe whether the sample would return to Form 1 or form a mixed anhydrous/hydrated species (see Table 3, FIGS. 6G-6H).

[2] = Storage at elevated temperature/humidity, analysed by XRPD
Procedure: Samples 1 and 2 were characterized by XRPD at various conditions. XRPD patterns were collected for the samples at ambient condition as the samples were provided; at variable temperature (VT-XRPD); at variable humidity (VH-XRPD); after the samples were exposed to 40° C./75% RH for 1 week and 25° C./97% RH for 1 week, respectively; and after a GVS measurement wherein the samples were exposed to 0-90% RH. Samples 1 and 2 were also characterized by ^1H NMR, TGA, DSC, KF, IC, GVS (exposed to 0-90% RH), PLM, SEM, and HPLC (Table 5).

[3] = Solubility assessment of amorphous RAD1901-2HCl; settings: thermodynamic from solid, read-out: Solubility assessment 10 vol.
Procedure: In a scale-up preparation of amorphous RAD1901-2HCl, RAD1901-2HCl (600 mg) was dissolved in water (20 vol., 12 mL) and filtered to remove any remaining solid particles. The solution was then aliquoted into 24 HPLC vials, frozen in a dry ice/acetone bath and the solvent removed by lyophilisation. Solids produced by lyophilization were used directly in solubility assessment and polymorph screens in Example 4.
Amorphous RAD1901-2HCl prepared as described in Example 3B was used directly in solubility assessment and polymorph screens (Table 15). XRPD patterns were further obtained for amorphous RAD1901-2HCl prepared using other solvents.

[4] = Solubility assessment of amorphous RAD1901-2HCl in water/organic solvent system; settings: organic solvent or mixture, thermodynamic from solid
Procedure: Samples of amorphous RAD1901-2HCl were prepared in water/organic solvent mixtures containing varying ratios of water. The organic solvents chosen were anhydrous ethanol, methanol and ethyl acetate. The percentage of water in the water/organic solvent mixtures was varied between 0 and 10% (v/v) in order to place a limit on the level of water that can be present during production processes, and to retain formation of Form 1. Above this water activity limit, the hydrated Form 3 will be obtained, as shown by GVS experiments (see FIGS. 6G and 20A). It should be noted that samples prepared in ethyl acetate, were either slurried in anhydrous ethyl acetate, or in water saturated ethyl acetate.
The water activity values for each water/organic solvent mixture are provided in Table 16, and were calculated using the reference given in Bell, Halling, Enzyme Microbiol. Technol. 1997, 20, 471, incorporated herein by reference.

XRPD post GVS (uptake 0-90% RH) ([1]; after exposure to 0-90% RH): stable; also recorded: No changes
Hygroscopicity compared with Form 2 ([1]; than Form 2): lower hygroscopicity
XRPD after storage at 40° C./75% RH for 1 week ([2]; 40° C./75% RH, 1 week): stable
Solid form on prolonged exposure to high RH (>90%) ([2]; high RH (>90%), e.g. for 7 days): converted to the hydrate Form 3
Stability of the polymorphic form (overall characterization) ([2]; relative to heat and/or humidity): stable
Compound: CCNCCc1ccc(CN(CC)c2cc(OC)ccc2[C@@H]2CCc3cc(O)ccc3C2)cc1.Cl.Cl [Form 1]
Hygroscopicity (GVS) [1]: relatively non-hygroscopic; also recorded: low hygroscopicity
Solid form on exposure to high RH (>90%) by GVS ([1]; above 90% RH): irreversibly converted to the hydrate Form 3; also recorded: started converting to the hydrate Form 3
XRPD after storage at 25° C./97% RH for 1 week ([2]; 25° C./97% RH, 1 week): converted to Form 3; also recorded: conversion towards a hydrated state Form 3

Hygroscopicity (GVS) [1]: hygroscopic
Solid form after exposure to >40% RH for 7 days ([2]; >40% RH, 7 days): Form 3
Compound: CCNCCc1ccc(CN(CC)c2cc(OC)ccc2[C@@H]2CCc3cc(O)ccc3C2)cc1.Cl.Cl [Form 2]

Solid form after exposure to <40% RH for 8 hr ([2]; <40% RH, 8 hr): Form 2
Compound: CCNCCc1ccc(CN(CC)c2cc(OC)ccc2[C@@H]2CCc3cc(O)ccc3C2)cc1.Cl.Cl [Form 3]

solubility ([3]; organic solvent or mixture, 1,2-dimethoxyethane, sample ID B16): < 100 mg/mL
solubility ([3]; organic solvent or mixture, 1,4-Dioxane, sample ID B14): < 100 mg/mL
solubility ([3]; organic solvent or mixture, 1-propanol, sample ID B8): < 100 mg/mL
solubility ([3]; organic solvent or mixture, 2-propanol, sample ID B6): < 100 mg/mL
solubility ([3]; organic solvent or mixture, 10% water/EtOH, sample ID B22): > 100 mg/mL
solubility ([3]; organic solvent or mixture, 10% water/IPA, sample ID B23): < 100 mg/mL
solubility ([3]; organic solvent or mixture, 10% water/THF, sample ID B24): < 100 mg/mL
solubility ([3]; organic solvent or mixture, Acetone, sample ID B9): < 100 mg/mL
solubility ([3]; organic solvent or mixture, Acetonitrile, sample ID B20): < 100 mg/mL
solubility ([3]; organic solvent or mixture, Dichloromethane, sample ID B18): < 100 mg/mL
solubility ([3]; organic solvent or mixture, Dimethyl sulfoxide, sample ID B11): > 100 mg/mL
solubility ([3]; organic solvent or mixture, Ethanol, sample ID B10): < 100 mg/mL
solubility ([3]; organic solvent or mixture, Ethyl acetate, sample ID B3): < 100 mg/mL
solubility ([3]; organic solvent or mixture, Isopropyl acetate, sample ID B4): < 100 mg/mL
solubility ([3]; organic solvent or mixture, MEK, sample ID B7): < 100 mg/mL
solubility ([3]; organic solvent or mixture, MIBK, sample ID B5): < 100 mg/mL
solubility ([3]; organic solvent or mixture, Methanol, sample ID B19): < 100 mg/mL
solubility ([3]; organic solvent or mixture, Nitromethane, sample ID B21): < 100 mg/mL
solubility ([3]; organic solvent or mixture, Propyl acetate, sample ID B2): < 100 mg/mL
solubility ([3]; organic solvent or mixture, TBME, sample ID B13): < 100 mg/mL
solubility ([3]; organic solvent or mixture, Tetrahydrofuran, sample ID B17): < 100 mg/mL
solubility ([3]; organic solvent or mixture, Toluene, sample ID B15): < 100 mg/mL
solubility ([3]; organic solvent or mixture, n-Heptane, sample ID B1): < 100 mg/mL
solubility ([3]; Water, sample ID B12): > 100 mg/mL
solubility ([4]; EtOH/H2O (90:10), EtOH/H2O (90:10), sample ID C1, read-out: Solubility assessment 10 vol.): > 100 mg/mL
solubility ([4]; EtOH/H2O (95:5), EtOH/H2O (95:5), sample ID C2, read-out: Solubility assessment 10 vol.): < 100 mg/mL
solubility ([4]; EtOH/H2O (98:2), EtOH/H2O (98:2), sample ID C3, read-out: Solubility assessment 10 vol.): < 100 mg/mL
solubility ([4]; EtOH/H2O (99:1), EtOH/H2O (99:1), sample ID C4, read-out: Solubility assessment 10 vol.): < 100 mg/mL
solubility ([4]; MeOH/H2O (90:10), MeOH/H2O (90:10), sample ID C5, read-out: Solubility assessment 10 vol.): > 100 mg/mL
solubility ([4]; MeOH/H2O (95:5), MeOH/H2O (95:5), sample ID C6, read-out: Solubility assessment 10 vol.): > 100 mg/mL
solubility ([4]; MeOH/H2O (98:2), MeOH/H2O (98:2), sample ID C7, read-out: Solubility assessment 10 vol.): < 100 mg/mL
solubility ([4]; MeOH/H2O (99:1), MeOH/H2O (99:1), sample ID C8, read-out: Solubility assessment 10 vol.): < 100 mg/mL
solubility ([4]; anhydrous ethyl acetate, Ethyl acetate (anhydrous), sample ID C9, read-out: Solubility assessment 10 vol.): < 100 mg/mL
solubility ([4]; anhydrous ethyl acetate, Ethyl acetate (anhydrous), sample ID C9, read-out: Solubility assessment 20 vol): < 50 mg/mL
solubility ([4]; anhydrous ethyl acetate, Ethyl acetate (anhydrous), sample ID C9, read-out: Solubility assessment 30 vol): < 33.3 mg/mL
solubility ([4]; water-saturated ethyl acetate, Water-saturated ethyl acetate, sample ID C10, read-out: Solubility assessment 10 vol.): < 100 mg/mL
solubility ([4]; water-saturated ethyl acetate, Water-saturated ethyl acetate, sample ID C10, read-out: Solubility assessment 20 vol): < 50 mg/mL
solubility ([4]; water-saturated ethyl acetate, Water-saturated ethyl acetate, sample ID C10, read-out: Solubility assessment 30 vol): < 33.3 mg/mL
Compound: CCNCCc1ccc(CN(CC)c2cc(OC)ccc2[C@@H]2CCc3cc(O)ccc3C2)cc1.Cl.Cl [amorphous RAD1901-2HCl]
